The values that follow come from BindingDB's records for doi:10.1016/j.bmcl.2018.11.048 (Advinus Therapeutics, 2019).

Structures are written as SMILES. pIC50: −log10 of the molar value.

Test [1] deals with T1, Fatty-acid amide hydrolase 1 (Homo sapiens, UniProt O00519).
T1 sequence (O00519 whole entry): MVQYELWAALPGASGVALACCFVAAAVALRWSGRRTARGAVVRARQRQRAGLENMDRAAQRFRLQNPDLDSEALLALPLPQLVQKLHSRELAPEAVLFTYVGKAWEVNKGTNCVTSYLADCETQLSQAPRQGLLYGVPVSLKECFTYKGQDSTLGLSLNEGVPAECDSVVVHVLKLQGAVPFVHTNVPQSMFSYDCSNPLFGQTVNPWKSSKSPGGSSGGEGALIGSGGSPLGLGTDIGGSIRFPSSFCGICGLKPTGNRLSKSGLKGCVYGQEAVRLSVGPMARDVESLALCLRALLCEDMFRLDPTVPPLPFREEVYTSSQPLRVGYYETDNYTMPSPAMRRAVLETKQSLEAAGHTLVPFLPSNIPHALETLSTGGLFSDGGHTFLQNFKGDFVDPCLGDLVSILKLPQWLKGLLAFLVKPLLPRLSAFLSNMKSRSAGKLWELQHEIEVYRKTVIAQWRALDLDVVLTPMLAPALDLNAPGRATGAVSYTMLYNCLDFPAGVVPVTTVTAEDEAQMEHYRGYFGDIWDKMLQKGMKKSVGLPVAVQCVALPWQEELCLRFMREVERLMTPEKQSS
Nature of the test: Inhibition of human transmembrane domain deficient FFAH expressed in Escherichia coli using AAMCA as substrate incubated for 1 min measured for 50 mins by fluorescence assay.

Test [2] concerns the target T2, Fatty-acid amide hydrolase 1 [30-579] (Rattus norvegicus, UniProt P97612).
T2 construct: 30-579
T2 sequence (P97612 whole entry): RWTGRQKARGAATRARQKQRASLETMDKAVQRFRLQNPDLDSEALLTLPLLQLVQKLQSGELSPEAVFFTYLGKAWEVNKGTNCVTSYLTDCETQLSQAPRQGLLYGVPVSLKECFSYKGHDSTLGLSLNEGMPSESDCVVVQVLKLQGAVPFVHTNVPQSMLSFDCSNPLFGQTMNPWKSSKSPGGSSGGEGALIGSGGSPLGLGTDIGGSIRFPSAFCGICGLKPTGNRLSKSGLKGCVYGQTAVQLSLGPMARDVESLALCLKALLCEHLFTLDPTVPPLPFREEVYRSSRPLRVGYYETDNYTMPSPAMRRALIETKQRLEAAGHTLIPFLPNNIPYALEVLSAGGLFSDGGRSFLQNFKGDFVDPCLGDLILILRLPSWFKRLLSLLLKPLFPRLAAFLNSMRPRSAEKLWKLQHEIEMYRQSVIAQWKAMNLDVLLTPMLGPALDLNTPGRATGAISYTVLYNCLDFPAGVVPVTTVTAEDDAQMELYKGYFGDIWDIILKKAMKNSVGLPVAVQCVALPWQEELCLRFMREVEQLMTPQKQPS
Kind of test: Inhibition of rat FFAH expressed in Escherichia coli using AAMCA as substrate incubated for 1 min measured for 50 mins by fluorescence assay.

The term pIC50 denotes −log10 of the IC50, conventionally taken in molar units. Turning to `CCOC(=O)Cn1nc2c(c1C(C)C)C(c1ccc(Cl)cc1C)N(c1cc(Cl)ccc1C)C2=O` (stereo unspecified) [US9682953, 20.A-1], in test [1], the pIC50 is 8.66.

Take `Cc1cc(C(=O)NC2CCC(=Cc3cccc(Oc4ccc(C(F)(F)F)cn4)c3)CC2)cnc1N` (stereo unspecified) [US9682953, 20.A-5]: the pIC50 in test [1] is 8.52; in test [2], 7.54.

Regarding `O=C(NC1CCC(=Cc2cccc(Oc3ccc(C(F)(F)F)cn3)c2)CC1)c1cn[nH]c1` (stereo unspecified) [US9682953, 20.A-12], in test [1], the pIC50 was 8.59.

Consider `O=C(NC1CCC(=Cc2cccc(Oc3ccc(C(F)(F)F)cn3)c2)CC1)c1cnc2[nH]ccc2c1` (stereo unspecified) [US9682953, 20.A-13], for which the negative-log IC50 (pIC50) in test [1] is 8.66.

`O=C(NC1CCC(=Cc2cccc(Oc3ccc(C(F)(F)F)cn3)c2)CC1)c1cncnc1` (stereo unspecified) [US9682953, 20.A-20] had a pIC50 in test [1] of 8.59.
